{"source": "patent US11376264B2", "about": "“Use of bromodomain-containing protein 9 antagonists in combination with vitamin D receptor agonists in diabetes treatment” (Salk Institute for Biological Studies, priority 2017, dated 2022)", "key": {"[1]": {"system": "db/db (B6) mice", "assay": "db/db (B6) mouse T2D model treatment", "type": "in vivo", "conditions": "for fasted blood glucose levels: Cal 60 μg/kg, iBRD9 10 mg/kg i.p. 3 times a week, 9 weeks; for serum insulin levels: FIG. 10D, fasting / random fed", "method": "(§1) The following mice strains were from Jackson: VDR KO (B6.129S4-Vdrtm1Mbd/J), B6 db (B6.BKS(D)-Leprdb/J), BKS db (BKS.Cg-Dock7m+/+ Leprdb/J), C57BL6/J. Animals were maintained in a specific pathogen-free animal facility on a 12-hr light-dark cycle at an ambient temperature of 23° C. Water and food were provided ad lib. All animal experiments used age-matched male mice. VDR KO and control littermate mice were maintained on a VDR KO rescue diet containing 21% calcium, 0.67% phosphorus, and 20% lactose supplemented with 4.4 U vitamin D per gram diet.\n(§2) db/db (B6) mice were grouped based on glucose levels at the age of 5 weeks. Treatments were started from 6 weeks and animals were treated with vehicle (30% 2-Hydroxypropyl-β Cyclodextrin, Sigma, H-107) or drugs 3 times a week. […] For db/db (BKS) mice, treatment started from age of 10 weeks.\n(§3) Intraperitoneal GTTs were performed on overnight fasted mice. Blood glucose values were assessed before and at 0, 15, 30, 60, and 120 min after i.p. administration of 0.5 g/kg of glucose. Serum insulin levels were assessed before and at 0, 15, and 60 min after the i.p. administration of glucose using a rat/mouse Insulin ELISA kit (Millipore). IP-ITT assays were performed on mice after a 6 hr fast with an injection of 2 U/kg of insulin (Humalin R, Eli Lilly).\n(§4) ELISA were performed per manufacturer's instructions: mouse insulin (Millipore, EZRMI-13K), mouse proinsulin (Mercodia, NC9088881)."}, "[2]": {"system": "human islets", "assay": "Long term ex vivo human islet cultures", "type": "cell-based", "conditions": "for insulin secretion: 1 week; for islet survival (cell numbers): 4 weeks", "method": "Mouse pancreatic islets were isolated as previously described (Yoshihara et al., 2010, Nat. Commun 1:127) with slight modification. Briefly, 0.5 mg/ml collagenase P (Roche REF 1213873001, diluted in HBSS buffer, GIBCO, 14170-112) was injected through the common bile duct, and the perfused pancreas dissected and incubated at 37° C. for 21 min. Digested exocrine cells and intact islets were separated via centrifugation (900×g for 15 min) over Histopaque-1077 (Sigma, H8889), and intact islets were manually selected. Human islets were provided by the Integrated Islets Distribution Program (see details below)."}, "[3]": {"system": "db/db (BKS) mice", "assay": "db/db (BKS) mouse T2D model treatment", "type": "in vivo", "method": "as §1, §2\n(§5) For immunohistochemistry, FFPE tissues sections were deparaffinized and antigen retrieval performed using Vector Antigen Unmasking buffer (H3301). VectaStain ABC kit and ImmPACT DAB substrate (Vector Lab) were used to develop signal. Antibodies used: Pro-insulin (R&D, MAB13361, 1:100), insulin (Abcam, ab7842, 1:100), MAFA (Novus, NB400-137, 1:50), NKX6-1 (Cell Signaling, 54551, 1:100), and Glucagon (Abcam, ab82270, 1:100). DAPI-containing mounting media ([…] mounting medium for fluorescence) was used for nuclear staining. Immunostaining was visualized by ZEISS 780 confocal microscopy analysis.\nas §4"}, "[4]": {"system": "low-dose STZ-treated mice", "assay": "Low-dose STZ β cell damage mouse model", "type": "in vivo", "conditions": "for glucose control (overnight fasted glucose): i.p. 3 times a week; for serum insulin levels: mouse, in vivo", "method": "8 week old C57B16 male mice were injected intraperitoneally with streptozotocin (Sigma, S0130) at the dose of 50 mg/kg every day for 5 consecutive days.\nas §5, §3"}, "[5]": {"target": "T1, VDR-BRD9 interaction (Homo sapiens, UniProt P11473+Q9H8M2)", "T1 construct": "endogenous BRD9 co-immunoprecipitates with HA-tagged VDR; expressed in transfected cells; host or cells: 293T", "T1 sequence (P11473 1-427)": "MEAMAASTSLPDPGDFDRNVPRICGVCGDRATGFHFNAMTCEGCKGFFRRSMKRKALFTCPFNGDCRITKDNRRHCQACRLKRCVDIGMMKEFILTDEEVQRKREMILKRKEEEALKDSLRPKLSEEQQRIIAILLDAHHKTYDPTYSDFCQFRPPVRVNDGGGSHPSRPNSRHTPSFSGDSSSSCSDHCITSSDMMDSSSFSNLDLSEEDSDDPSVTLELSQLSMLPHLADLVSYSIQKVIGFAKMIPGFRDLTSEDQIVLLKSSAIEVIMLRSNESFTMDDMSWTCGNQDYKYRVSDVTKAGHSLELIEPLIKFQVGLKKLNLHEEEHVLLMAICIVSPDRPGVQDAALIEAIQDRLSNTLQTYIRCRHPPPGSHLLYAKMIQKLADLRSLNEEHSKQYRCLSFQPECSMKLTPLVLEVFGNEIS", "T1 sequence (Q9H8M2 1-597)": "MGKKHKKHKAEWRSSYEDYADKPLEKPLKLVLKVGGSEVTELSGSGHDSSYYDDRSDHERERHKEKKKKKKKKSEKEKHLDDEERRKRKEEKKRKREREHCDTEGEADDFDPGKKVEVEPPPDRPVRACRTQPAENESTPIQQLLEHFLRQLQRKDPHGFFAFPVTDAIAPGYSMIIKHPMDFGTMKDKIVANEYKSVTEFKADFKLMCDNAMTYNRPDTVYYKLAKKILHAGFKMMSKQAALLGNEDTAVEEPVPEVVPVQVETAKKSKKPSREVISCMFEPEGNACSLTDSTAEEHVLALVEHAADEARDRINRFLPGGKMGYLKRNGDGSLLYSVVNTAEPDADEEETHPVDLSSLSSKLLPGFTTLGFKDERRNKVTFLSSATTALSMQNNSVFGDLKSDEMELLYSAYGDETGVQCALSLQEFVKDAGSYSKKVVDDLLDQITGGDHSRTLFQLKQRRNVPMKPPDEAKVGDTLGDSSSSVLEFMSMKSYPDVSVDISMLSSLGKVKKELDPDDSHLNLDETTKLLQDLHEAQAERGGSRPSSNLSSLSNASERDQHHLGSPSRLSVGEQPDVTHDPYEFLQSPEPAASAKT", "assay": "Co-immunoprecipitation of VDR and BRD9 in 293T cells", "type": "cell-based", "conditions": "proteomic and Western blot", "description": "Briefly, cells are lysed using ice-cold lysis buffer (HEPES 20 mM pH8, EDTA 0.2 mM, NaCl 0.3 mM, NP40 0.5%, 15% glycerol) for 15 min, and after centrifuging the supernatant was collected. For HA- or Flag-tagged proteins, immunoprecipitations were performed using HA-magnetic beads (Pierce, P188836), or Flag-magnetic beads (Sigma, M8823) for 1.5 hr at 4° C. For other immunoprecipitations, primary antibodies were incubated with lysates for 2 hr followed by Protein A magnetic beads (Life Technologies, 10001D). After 3 washes with wash buffer (HEPES 10 mM pH8, EDTA 0.2 mM, NaCl 0.3 mM, NP40 0.1%, 15% glycerol), the beads were boiled with NuPage LDS sample buffer and the lysates were stored at −20° C."}}, "note": "Entries after “also recorded” stand apart in the source; their conditions may differ.", "data": [{"smiles": "C=C1/C(=C\\C=C2/CCC[C@]3(C)[C@@H]([C@H](C)/C=C/[C@@H](O)C4CC4)CC[C@@H]23)C[C@@H](O)C[C@@H]1O", "note": "[Cal, calcipotriol]", "values": [{"measurement": "fasted blood glucose levels", "setting": "[1]", "result": "modest improvements; also recorded: mildly reduces"}, {"measurement": "serum insulin levels", "setting": "[1]", "result": "higher fasting serum insulin levels"}, {"measurement": "cytokine and chemokine genes in islets", "setting": "[1]; RNA-seq of islets", "result": "downregulated"}, {"measurement": "key transcription factors (Nkx6-1, Nr4a1) in islets", "setting": "[1]; RNA-seq of islets", "result": "upregulation"}, {"measurement": "Cyp24A1 expression in islets and intestine", "setting": "[1]; VDR target gene", "result": "marked induction"}, {"measurement": "glucose tolerance (IPGTT)", "setting": "[1]; after 9 weeks treatment", "result": "improved glucose clearance; also recorded: better glucose tolerance"}, {"measurement": "Ins2 mRNA levels in islets", "setting": "[1]; qPCR", "result": "trended upwards; also recorded: increased expression of Ins2"}, {"measurement": "expression of gluconeogenesis genes (Pepck, Fbp1, G6pase) in liver", "setting": "[1]; qPCR", "result": "reduced expression; also recorded: repressed"}, {"measurement": "insulin secretion", "setting": "[2]", "result": "increased"}, {"measurement": "insulin secretion", "setting": "[2]; listed as Calcipotriol", "result": "Increases"}, {"measurement": "islet survival (cell numbers)", "setting": "[2]", "result": "increased"}, {"measurement": "islet survival (cell numbers)", "setting": "[2]; listed as Calcipotriol", "result": "Increases"}, {"measurement": "serum insulin levels", "setting": "[3]; fasting", "result": "higher fasting serum insulin levels"}, {"measurement": "fasting blood glucose / glucose management", "setting": "[3]; i.p. 3 times a week", "result": "only limited improvements"}, {"measurement": "ER stress markers Calnexin and PERK", "setting": "[3]; immunohistochemistry of pancreatic sections", "result": "reduced"}, {"measurement": "intracellular insulin level (immunofluorescence)", "setting": "[3]; pancreas sections", "result": "rescued"}, {"measurement": "glucose control (overnight fasted glucose)", "setting": "[4]", "result": "limited to no benefit"}, {"measurement": "serum insulin levels", "setting": "[4]", "result": "increased levels of insulin"}]}, {"smiles": "CCn1cc(-c2cccc(C(F)(F)F)c2)c2sc(C(=N)NC3CCS(=O)(=O)CC3)cc2c1=O", "note": "[iBRD9]", "values": [{"measurement": "fasted blood glucose levels", "setting": "[1]", "result": "modest improvements"}, {"measurement": "serum insulin levels", "setting": "[1]", "result": "higher fasting serum insulin levels"}, {"measurement": "interaction between VDR and BRD9", "setting": "[5]", "result": "reduced the interaction between VDR and BRD9"}, {"measurement": "glucose control (overnight fasted glucose)", "setting": "[4]", "result": "limited to no benefit"}, {"measurement": "serum insulin levels", "setting": "[4]", "result": "increased levels of insulin"}]}]}
